For data set [1] the following is noted: cited from earlier work.
In data set [2] the test system is whole blood. Put plainly: Ex vivo glucocorticoid comparison, whole blood CBC analysis. The format is cell-based. The note with it: overnight, room temperature.
In the next data set the test system is splenocytes. Put plainly: Ex vivo splenocyte viability by flow cytometry (Study 24). The class given is cell-based, mouse. The protocol: Splenocytes were cultured for 16 hours prior to assay execution.
Data set [3] deals with lymphocytes, monocytes, NKT cells, T cells, dendritic cells. Briefly: In vivo immune cell mobilisation and ablation after high dose glucocorticoid. The arrangement: species or system mice. The note with it: HED 15 mg/kg and higher. The source says: High doses of glucocorticoid exert powerful biological effects that will contribute to the treatment of lymphocyte-mediated diseases and cancers, as well as microbial diseases. […] This cell type is discussed in greater detail below.
CD4CD8 double positivity on CD3 T lymphocytes indicates a cytotoxic T cell. […] In vivo only lymphocytes, monocytes, some neutrophils and cancer cells have been ablated.
AVM_NKT cells are NKp46+ and Ly6G positive, indicating the potential to directly kill targets as well as to engulf them. The typical AVM_NKT summarized above are not CD1d restricted. […] In vivo, glucocorticoids ablate lymphocytes other than NK and NKT cells, and monocytes, within 6 hours after oral dosing of naïve mice. In tumor models the novel NKT and T cell are not observed in the blood. However, within 48 hours of dosing NKp46+ cells and Ly6G+ cells, which are not macrophages as they are negative for F4/80, can be found in formations within the tumors, surrounding regions of remaining viable tumor. This indicates the functional potency of these cells. In the tumor setting, the AVM novel immune cells are not observed in the blood. They appear to preferentially home to the abnormal cells, in this case cancer cells, and circulating normal monocytes and neutrophils are not depleted as they are in the naïve setting.

Data set [4] deals with whole blood. Briefly: Ex vivo whole blood incubation, immune cell numbers (Study 6). The format is cell-based, mouse or human. The method, then:
The profound in vivo activity that is observed in naïve mice and in cancer models must therefore be mediated through the mobilized supercharged Natural Killer T cells, T cells and dendritic cells after AVM0703 HED 6 mg/kg and higher.

The mark [5] stands for this setting: ex vivo or in vitro concentrations equal to peak blood concentrations of HED 7-15 mg/kg or greater.

As for `C[C@]12C=CC(=O)C=C1CC[C@@H]1[C@@H]2C(=O)C[C@@]2(C)[C@H]1CC[C@]2(O)C(=O)CO` [prednisone], in data set [1], the biologic half-life result is “about 20 hours”.
With `C[C@@H]1C[C@H]2[C@@H]3CCC4=CC(=O)C=C[C@]4(C)[C@@]3(F)[C@@H](O)C[C@]2(C)[C@@]1(O)C(=O)COP(=O)(O)O` [dexamethasone phosphate], the “differences between dexamethasone formulations in ex vivo CBC analysis” value with whole blood [2] is “no noticeable differences”. The “direct apoptotic effect on splenocytes” value in the data set with splenocytes (setting [5]) is “no direct apoptotic effect”. In data set [3], the “in vivo effects on colon, pancreas or bone” value is given as “no effects on colon, pancreas or bone”; the “induction of CD3-very-high T cells and CD11b-very-high dendritic cells” value is listed as “CD11b-very-high dendritic cells are also induced”. The “direct apoptotic effect on whole blood” value with whole blood [4] (setting [5]) is given as “no direct apoptotic effect”.
On to `C[C@@H]1C[C@H]2[C@@H]3CCC4=CC(=O)C=C[C@]4(C)[C@@]3(F)[C@@H](O)C[C@]2(C)[C@@]1(O)C(=O)CO` [dexamethasone base], for which, in the data set on splenocytes (100 uM up to 500 uM), the “response of isolated splenocytes” value is “no response”. Moreover, in the data set on splenocytes (after 4 hours), the “concentrations that do not trigger splenocyte cell death” value is listed as “above 100 μM” and the “concentrations with direct killing activity on splenocytes” value is “lower than 100”. Besides, the “response of ex vivo whole blood” value in the data set with whole blood [4] (100 uM up to 500 uM) is reported as “no response”. The “numbers of lymphocytes, monocytes, eosinophils, basophils in whole blood” value in the data set on whole blood [4] (500 μM dexamethasone base or 50 RU486, 16 hr, room temperature) was “no change in numbers”. Moreover, the “lymphocyte-killing activity in whole blood” value in the data set with whole blood [4] (500 μM dexamethasone base or 50 RU486 alone) is given as “does not induce the lymphocyte-killing activity seen in in vivo experiments”.

The values above are taken from US12648952B2, “Methods of treatment using ICAM-modulating agents” (AVM Biotechnology, LLC, priority 2020, dated 2026).
